Assay results published in US8889683B2, “Substituted quinoxalines as inhibitors of fatty acid binding protein” (Merck Sharp & Dohme Corp., priority 2010, dated 2014).

These molecules were tested against FABP4 (Homo sapiens, UniProt P15090) (assay: TdF-based ligand binding affinity (FABP inhibitory activity assay)). Details: TdF-based ligand binding affinity constant.
Source text: Theoretical basis for TdF-based ligand binding affinity constant
The derivation of TdF-based ligand binding affinity constant (Kd) followed closely those previously formulated by Brandts and Lin, Biochemistry 29 (1990) 6927-6940. In brief, the binding constant of the ligand at the Tm is expressed as below: […]
where T0 is the midpoint of unfolding for unliganded protein and Tm is the midpoint of unfolding in presence of ligand. [LTm] is free ligand at Tm. The ΔHu and ΔCpu are the enthalpy of unfolding and heat capacity change of unfolding for the protein respectively. The ΔCPu is proportional to the size of protein and is an approximate quantity in the above equation (empirically, ΔCpu=(MW of protein/115)*14 cal/mol*K). Following algorithm derived by Mayhood et al, (Analytical Biochemistry 345 (2005) 187-197), the T0 and ΔHu can be determined separately from nonlinear regression fitting the temperature dependent protein alone curve to the following equation: […]
The nonlinear regression fitting in general readily reaches convergence by properly constraining the initial values for the fitting parameters (e.g. the initial “guess” for the ΔHu was constrained to 120 kcal/mol; initial Yn and mr, were set to 1 and zero to best represent the melting curve along the low temperature region; negative slope of −0.5 was initially chosen for mu; initial Tm was also constrained to 50° C.).
(see Brandts et al and Mayhood et al, shown above) where ΔHL (T) is the van't Hoff enthalpy of ligand binding at temperature T and ΔCpL is the heat capacity upon ligand binding. For simplicity, the ΔCpL and ΔHL (T) were set to zero and −7 kcal/mol respectively. (The ΔCpL accounts for minimal portion of total protein-ligand binding energetics and is therefore set to zero (For example, see Hossein Naghibi et al, Proc. Natl. Acad. Sci. 92, 5597-5599 (1995), where ΔCpL was estimated to ˜2% of ΔHL at 25° C. obtained from calorimetric study of binding RNase A and 2′-CMP)).

Chain of FABP4 (P15090 whole entry): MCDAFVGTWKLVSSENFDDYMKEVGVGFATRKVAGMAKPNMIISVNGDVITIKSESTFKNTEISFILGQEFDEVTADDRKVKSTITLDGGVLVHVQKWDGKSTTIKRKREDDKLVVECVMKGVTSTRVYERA

| Kd | Structure (SMILES) |
| --- | --- |
| 4.7 µM | O=C(c1nc2ccccc2nc1O)N1CCCCC1Cc1ccc(F)cc1 (racemic) [Compound 1-79, (+/−)-[2-(4-Fluorobenzyl)piperidin-1-yl](3-hydroxyquinoxalin-2-yl)methanone] |
| 4.76 µM | COc1ccc(CC2CCCCN2C(=O)c2nc3ccccc3nc2O)cc1 (racemic) [Compound 1-80, (+/−)-(3-Hydroxyquinoxalin-2-yl)[2-(4-methoxybenzyl)piperidin-1-yl]methanone] |
| 16.2 µM | O=C(c1nc2ccccc2nc1O)N1CCCC(Cc2ccccc2)C1 (racemic) [Compound 1-83, (+/−)-(3-Benzylpiperidin-1-yl)(3-hydroxyquinoxalin-2-yl)methanone] |
| 11 µM | COc1cccc(CC2CCCN(C(=O)c3nc4ccccc4nc3O)C2)c1 (racemic) [Compound 1-85, (+/−)-(3-Hydroxyquinoxalin-2-yl)[3-(3-methoxybenzyl)piperidin-1-yl]methanone] |
| 8.6 µM | O=C(c1nc2ccccc2nc1O)N1CCCC(Cc2cccc(F)c2)C1 (racemic) [Compound 1-86, (+/−)-[3-(3-Fluorobenzyl)piperidin-1-yl](3-hydroxyquinoxalin-2-yl)methanone] |
| 5.5 µM | O=C(c1nc2ccccc2nc1O)N1CCCC(Cc2ccc(F)cc2)C1 (racemic) [Compound 1-88, (+/−)-[3-(4-Fluorobenzyl)piperidin-1-yl](3-hydroxyquinoxalin-2-yl)methanone] |
| 1.84 µM | Cc1cccc(CC2CCCCCN2C(=O)c2nc3ccccc3nc2O)c1 (racemic) [Compound 1-91, (+/−)-(3-Hydroxyquinoxalin-2-yl)[2-(3-methylbenzyl)azepan-1-yl]methanone] |
| 9 µM | O=C(c1nc2ccccc2nc1O)N1CCCCCC1Cc1ccc(Cl)cc1 (racemic) [Compound 1-93, (+/−)-[2-(4-Chlorobenzyl)azepan-1-yl](3-hydroxyquinoxalin-2-yl)methanone] |
| 0.007 µM | O=C(c1nc2cc(F)cc(F)c2nc1O)N1CCC[C@H]1Cc1cc(Cl)cc(Cl)c1 [9-16, (S)-(2-(3,5-dichlorobenzyl)pyrrolidin-1-yl)(5,7-difluoro-3-hydroxyquinoxalin-2-yl)methanone] |
| 0.05 µM | O=C(c1nc2c(F)cc(F)cc2nc1O)N1CCC[C@H]1Cc1cc(Cl)cc(Cl)c1 [9-18, (S)-(2-(3,5-dichlorobenzyl)pyrrolidin-1-yl)(6,8-difluoro-3-hydroxyquinoxalin-2-yl)methanone] |
| 22.7 µM | O=C(c1nc2ccccc2nc1O)N1CCC[C@H]1CNc1ccccc1 [Compound 1-65, (S)-(3-Hydroxyquinoxalin-2-yl){2-[(phenylamino)methyl]pyrrolidin-1-yl}methanone] |
| 28.4 µM | CN(Cc1ccccc1)C(=O)c1nc2ccccc2nc1O [Compound 1-98] |
| 0.95 µM | O=C(c1nc2ccccc2nc1O)N1CCCC1Cc1cccc(Cl)c1 (stereo not drawn) [Compound 1-99] |
| 1.8 µM | O=C(c1nc2ccccc2nc1O)N1CCCC1Cc1ccccc1Cl (stereo not drawn) [Compound 1-115] |
| 4.6 µM | O=C(c1nc2ccccc2nc1O)N1CCCC1Cc1ccccc1 (stereo not drawn) [Compound 1-116] |
| 9.8 µM | Cc1ccc(CC2CCCN2C(=O)c2nc3ccccc3nc2O)cc1 (stereo not drawn) [Compound 1-117] |
| 11.3 µM | Cc1ccc(C(C)C)cc1N(C)C(=O)c1nc2ccccc2nc1O [Compound 1-124] |
| 31 µM | CCCN(CC1CC1)C(=O)c1nc2ccccc2nc1O [Compound 1-137] |
| 12.7 µM | CN(CCc1ccccc1)C(=O)c1nc2ccccc2nc1O [Compound 1-139] |

| Kd | Structure (SMILES) |
| --- | --- |
| 23.2 µM | CC(C)CN(C)C(=O)c1nc2ccccc2nc1O [Compound 1-140] |
| 26.1 µM | COc1ccc(CCN(C)C(=O)c2nc3ccccc3nc2O)cc1OC [Compound 1-141] |
| 23.1 µM | CN(Cc1cccc(Cl)c1)C(=O)c1nc2ccccc2nc1O [Compound 1-143] |
| 2.9 µM | O=C(c1nc2ccccc2nc1O)N1CCCC1Cc1ccccc1F (stereo not drawn) [Compound 1-153] |
| 2.7 µM | CN(CCc1cccc(Cl)c1)C(=O)c1nc2ccccc2nc1O [Compound 1-156] |
| 2 µM | O=C(c1nc2ccccc2nc1O)N1CCCC1Cc1ccc(F)cc1 (stereo not drawn) [Compound 1-158] |
| 0.022 µM | O=C(c1nc2cccc(Cl)c2nc1O)N1CCCC1Cc1cccc(F)c1 (stereo not drawn) [Compound 1-161] |
| 0.004 µM | O=C(c1nc2cccc(Cl)c2nc1O)N1CCCC1Cc1ccc(Cl)c(Cl)c1 (stereo not drawn) [Compound 1-162] |
| 0.002 µM | O=C(c1nc2ccc(C(F)(F)F)cc2nc1O)N1CCCC1Cc1cccc(F)c1 (stereo not drawn) [Compound 1-163] |
| 0.548 µM | O=C(c1nc2ccc(C(F)(F)F)cc2nc1O)N1CCCC1Cc1ccc(Cl)c(Cl)c1 (stereo not drawn) [Compound 1-164] |
| 0.244 µM | O=C(c1nc2cc(Cl)c(Cl)cc2nc1O)N1CCCC1CC1CCCCC1 (stereo not drawn) [Compound 1-165] |
| 10 µM | Nc1nc2ccccc2nc1C(=O)N1CCCC1Cc1cccc(Cl)c1 (stereo not drawn) [Compound 5-2, (3-aminoquinoxalin-2-yl)[2-(3-chlorobenzyl)pyrrolidin-1-yl]methanone] |
| 8.1 µM | O=C(c1nc2ccccc2nc1O)N1CCCC[C@@H]1Cc1cccc(Cl)c1 [Compound 7-7, (R)-(2-(3-chlorobenzyl)piperidin-1-yl)(3-hydroxyquinoxalin-2-yl)methanone] |
| 1.2 µM | O=C(c1nc2ccccc2nc1O)N1CCCC[C@H]1Cc1cccc(Cl)c1 [Compound 7-8, (S)-(2-(3-chlorobenzyl)piperidin-1-yl)(3-hydroxyquinoxalin-2-yl)methanone] |
| 0.25 µM | O=C(c1nc2ccccc2nc1O)N1CCC[C@H]1Cc1cc(Cl)cc(Cl)c1 [Compound 8-6, (S)-(2-(3,5-dichlorobenzyl)pyrrolidin-1-yl)(3-hydroxyquinoxalin-2-yl)methanone] |
| 0.3 µM | O=C(c1nc2ccccc2nc1O)N1CCC[C@H]1Cc1cccc(Cl)c1 [Compound 8-8, (S)-(2-(3-chlorobenzyl)pyrrolidin-1-yl)(3-hydroxyquinoxalin-2-yl)methanone] |
| 5 µM | O=C(c1nc2ccccc2nc1O)N1CCC[C@@H]1Cc1cccc(Cl)c1 [Compound 8-9, (R)-(2-(3-chlorobenzyl)pyrrolidin-1-yl)(3-hydroxyquinoxalin-2-yl)methanone] |
| 0.004 µM | O=C(c1nc2cc(Cl)c(Cl)cc2nc1O)N1CCC[C@H]1Cc1cc(Cl)cc(Cl)c1 [Compound 8-11] |
| 0.0013 µM | O=C(c1nc2cc(F)c(F)cc2nc1O)N1CCC[C@H]1Cc1cc(Cl)cc(Cl)c1 [Compound 8-12] |

The molecules below were run against FABP5 (Homo sapiens, UniProt Q01469) (assay: FABP5 TdCD binding affinity). Details: not given.
Chain of FABP5 (Q01469 whole entry): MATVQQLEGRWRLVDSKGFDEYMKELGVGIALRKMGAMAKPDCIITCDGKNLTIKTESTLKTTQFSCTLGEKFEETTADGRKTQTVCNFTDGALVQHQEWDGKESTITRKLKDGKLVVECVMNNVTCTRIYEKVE

| Kd | Structure (SMILES) |
| --- | --- |
| 0.5 µM | O=C(c1nc2ccccc2nc1O)N1CCC[C@H]1Cc1cccc(Cl)c1 [Compound 8-8, (S)-(2-(3-chlorobenzyl)pyrrolidin-1-yl)(3-hydroxyquinoxalin-2-yl)methanone] |
